In US20250026748A1, “N-(5-SUBSTITUTED-[(1,3,4-THIADIAZOLYL) OR (THIAZOLYL)])(SUBSTITUTED)CARBOXAMIDE COMPOUNDS AND USE THEREOF FOR INHIBITING HUMAN POLYMERASE THETA” (Repare Therapeutics Inc., priority 2021, published 2025) one finds IC50 data, which are given here for 60 molecules.

This experiment concerns the target PolQ ATPase enzyme (1-894) (Homo sapiens (Human), UniProt O75417). The experiment is described as follows: Polθ ATPase enzymatic assay (0.5 nM enzyme concentration), ADP-Glo. It is filed as biochemical. The conditions noted are these: average IC50; 0.5 nM PolQ ATPase enzyme (1-894). An outline of the steps: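 Enzyme (0.5 nM) pre-incubated 15 min at rt with 10-point inhibitor series in 50 mM Tris pH 7.5, 10% glycerol, 5 mM DTT, 10 mM MgCl2, 0.1 mg/ml BSA; reaction started with 20 nM fork DNA and 100 μM ATP, run 180 min at rt. ADP-Glo luminescence; IC50 from 4-parameter variable-slope fit.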
Background: ADP-Glo turns the ADP formed in a reaction into a luminescent signal.

Chain of PolQ ATPase enzyme (1-894) (O75417 1-894): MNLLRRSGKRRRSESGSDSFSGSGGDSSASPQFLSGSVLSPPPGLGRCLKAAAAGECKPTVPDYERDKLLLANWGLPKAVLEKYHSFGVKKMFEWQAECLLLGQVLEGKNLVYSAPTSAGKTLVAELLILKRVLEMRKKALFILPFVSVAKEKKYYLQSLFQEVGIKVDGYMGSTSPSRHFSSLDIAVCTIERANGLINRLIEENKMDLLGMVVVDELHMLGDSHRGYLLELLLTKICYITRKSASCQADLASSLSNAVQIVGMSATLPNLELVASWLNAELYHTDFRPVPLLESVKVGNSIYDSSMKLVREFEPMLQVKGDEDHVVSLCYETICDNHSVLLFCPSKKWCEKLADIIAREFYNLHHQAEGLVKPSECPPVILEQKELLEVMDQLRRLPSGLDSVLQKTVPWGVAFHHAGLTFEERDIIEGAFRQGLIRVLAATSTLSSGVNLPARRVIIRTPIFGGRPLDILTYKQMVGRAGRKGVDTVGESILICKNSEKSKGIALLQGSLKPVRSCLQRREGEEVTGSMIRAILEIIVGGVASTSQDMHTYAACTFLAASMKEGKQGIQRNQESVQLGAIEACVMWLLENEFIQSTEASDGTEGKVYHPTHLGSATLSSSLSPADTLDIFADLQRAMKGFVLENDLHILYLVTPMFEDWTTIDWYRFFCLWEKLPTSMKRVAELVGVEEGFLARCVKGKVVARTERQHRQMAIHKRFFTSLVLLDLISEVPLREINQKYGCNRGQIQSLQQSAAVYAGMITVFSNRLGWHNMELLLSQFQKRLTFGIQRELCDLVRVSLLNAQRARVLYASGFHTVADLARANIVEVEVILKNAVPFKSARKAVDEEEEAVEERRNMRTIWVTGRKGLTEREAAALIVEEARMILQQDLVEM

`COc1cnc(C(F)F)cc1-c1cc(-c2cncn2C)ncc1C(=O)Nc1nnc(C#CC2CC2)s1` [Compound 405]: the IC50 was below 0.25 nM.
`[2H]C([2H])([2H])Oc1cnc(C(F)F)cc1-c1cc(-c2nnc(C)o2)ccc1C(=O)Nc1nnc(C#CC2CC2)s1` [Compound 406] gave an IC50 of 2.8 nM.
The molecule `COc1cnc(Cl)nc1-c1cc(CC#N)ccc1C(=O)Nc1nnc(C#CC2CC2)s1` [Compound 407] registered an IC50 below 0.25 nM.
Under `COc1cnc(C(F)F)cc1-c1cc(-c2nnc(N(C)C)o2)ccc1C(=O)Nc1nnc(C#CC2CC2)s1` [Compound 408] stands 1.4 nM.
Under `COc1cnc(C(F)F)cc1-c1cc(-c2oc(C)nc2C)ncc1C(=O)Nc1nnc(C#CC2CC2)s1` [Compound 409] stands below 0.25 nM; under `COc1cnc(C(F)F)cc1-c1cc(-c2cnc(C)o2)ncc1C(=O)Nc1nnc(C#CC2CC2)s1` [Compound 410], 0.31 nM.
As for `COc1cnc(C(F)F)cc1-c1cc(-c2ccn(C)c2)ncc1C(=O)Nc1nnc(C#CC2CC2)s1` [Compound 411], the figure is 0.37 nM; as for `COc1cnc(C(F)F)cc1-c1cc(-c2cn(C)c(C)n2)ccc1C(=O)Nc1nnc(C#CC2CC2)s1` [Compound 412], 0.25 nM; as for `COc1cnc(C(F)F)cc1-c1cc(-n2cc(F)ccc2=O)ncc1C(=O)Nc1nnc(C#CC2CC2)s1` [Compound 413], below 0.25 nM.
With `COc1cnc(C(F)F)cc1-c1cc(-n2cc(F)c(C)cc2=O)ncc1C(=O)Nc1nnc(C#CC2CC2)s1` [Compound 414], the IC50 is below 0.25 nM.
`COc1cnc(C(F)F)cc1-c1cc(N2CCN3CCCC3C2=O)ncc1C(=O)Nc1nnc(C#CC2CC2)s1` (stereo not drawn) [Compound 415] returned an IC50 of 0.25 nM.
As for `COc1cnc(C(F)F)cc1-c1cc(-c2cn(C)nc2F)ncc1C(=O)Nc1nnc(C#CC2CC2)s1` [Compound 416], the figure is 0.69 nM.
`COc1cnc(Cl)nc1-c1cc(-c2ccn(C)n2)ncc1C(=O)Nc1nnc(C#CC2CC2)s1` [Compound 417]: the concentration for half-maximal inhibition (IC50) turned out to be 3.7 nM.
Consider `COc1cnc(C(F)F)cc1-c1cc(-c2nnc(NC(C)=O)o2)ccc1C(=O)Nc1nnc(C#CC2CC2)s1` [Compound 418], for which the IC50 was determined as 1.6 nM. This IC50 lies about 2.3-fold lower than the previous one.
As to `COc1cnc(C(F)F)cc1-c1cc(-c2cnn(CC#N)c2)ncc1C(=O)Nc1nnc(C#CC2CC2)s1` [Compound 419], the IC50 amounted to 0.72 nM.
As for `COc1cnn(-c2cc(-c3cc(C(F)F)ncc3OC)c(C(=O)Nc3nnc(C#CC4CC4)s3)cn2)c(=O)c1` [Compound 420], the figure is 0.31 nM.
Under `COc1cnc(C(F)F)cc1-c1cc(-n2ncccc2=O)ncc1C(=O)Nc1nnc(C#CC2CC2)s1` [Compound 421] stands below 0.25 nM; under `COc1cnc(C(F)F)cc1-c1cc(-c2cccc(C)n2)ncc1C(=O)Nc1nnc(C#CC2CC2)s1` [Compound 422], 0.54 nM.
Under `COc1cnc(C(F)F)cc1-c1cc(N2CC3(CCC2=O)CC3)ncc1C(=O)Nc1nnc(C#CC2CC2)s1` [Compound 426] stands 0.39 nM.
`COCCn1ccc(-c2cc(-c3cc(C(F)F)ncc3OC)c(C(=O)Nc3nnc(C#CC4CC4)s3)cn2)n1` [Compound 427] had an IC50 of 0.27 nM.
Under `COc1cnc(C(F)F)cc1-c1cc(-c2noc(C)n2)ncc1C(=O)Nc1nnc(C#CC2CC2)s1` [Compound 428] stands below 0.25 nM.
In turn, `Cc1nnc(-n2cc(-c3cc(C(F)(F)F)ccc3Cl)c(C(=O)Nc3nnc(C#CC4CC4)s3)cc2=O)o1` [Compound 429] had an IC50 below 0.25 nM.
As for `COc1cnc(C(F)F)cc1-c1cc(-c2nc(C)co2)ncc1C(=O)Nc1nnc(C#CC2CC2)s1` [Compound 430], the figure is below 0.25 nM.
`C#C[C@H]1CC1c1nnc(NC(=O)c2cnc(-n3ccc(C)cc3=O)cc2-c2cc(C(F)F)ncc2OC)s1` (stereo partly drawn) [Compound 431]: the IC50 was below 0.25 nM.
`COc1cnc(C(F)F)cc1-c1cc(N2CCN(C)C3(CC3)C2=O)ncc1C(=O)Nc1nnc(C#CC2CC2)s1` [Compound 432, N-(5-(cyclopropylethynyl)-1,3,4-thiadiazol-2-yl)-2′-(difluoromethyl)-5′-methoxy-6-(4-methyl-8-oxo-4,7-diazaspiro[2.5]octan-7-yl)-[4,4′-bipyridine]-3-carboxamide] registered a half-maximal inhibitory concentration (IC50) below 0.25 nM.
As for `CCc1nn(C)cc1-c1cc(-c2ccn(C)n2)ncc1C(=O)Nc1nnc(C#CC2CC2)s1` [Compound 433], the figure is 6.2 nM; as for `COc1ccn(-c2cc(-c3cc(C(F)F)ncc3OC)c(C(=O)Nc3nnc(C#CC4CC4)s3)cn2)c(=O)c1` [Compound 434], below 0.25 nM; as for `COc1cnc(C(F)F)cc1-c1cc(-n2ncc(C)cc2=O)ncc1C(=O)Nc1nnc(C#CC2CC2)s1` [Compound 435], below 0.25 nM.
As for `COc1cnc(C(F)F)cc1-c1cc(-c2ccc(C)cn2)ncc1C(=O)Nc1nnc(C#CC2CC2)s1` [Compound 436], the figure is below 0.25 nM; as for `COc1cnc(C(F)F)cc1-c1cc(-n2cccc(C)c2=O)ncc1C(=O)Nc1nnc(C#CC2CC2)s1` [Compound 437], below 0.25 nM; as for `COc1cnc(C(F)F)cc1-c1cc(-n2cccc(OC)c2=O)ncc1C(=O)Nc1nnc(C#CC2CC2)s1` [Compound 438], below 0.25 nM.
Under `COc1cnc(C(F)F)cc1-c1cc(-n2ccc3occc3c2=O)ncc1C(=O)Nc1nnc(C#CC2CC2)s1` [Compound 439] stands below 0.25 nM; under `COc1cnc(C(F)F)cc1-c1cc(-n2cc(C)ccc2=O)ncc1C(=O)Nc1nnc(C#CC2CC2)s1` [Compound 440], below 0.25 nM.
Take `COc1cnc(C(F)F)cc1-c1cc(N2CCCN(C)CC2=O)ncc1C(=O)Nc1nnc(C#CC2CC2)s1` [Compound 441]: the IC50 was found to be 0.43 nM.
As for `COc1cnc(C(F)F)cc1-c1cc(N2CCCC(C)(C)C2=O)ncc1C(=O)Nc1nnc(C#CC2CC2)s1` [Compound 442], the figure is below 0.25 nM.
As for `COc1cnc(C(F)F)cc1-c1cc(N2CCC3CCC3C2=O)ncc1C(=O)Nc1nnc(C#CC2CC2)s1` (stereo not drawn) [Compound 443], the figure is below 0.25 nM.
As for `COc1cnc(C(F)F)cc1-c1cc(N2CCC(C(C)(C)C)CC2=O)ncc1C(=O)Nc1nnc(C#CC2CC2)s1` (stereo not drawn) [Compound 444], the figure is below 0.25 nM; as for `COc1cnc(C(F)F)cc1-c1cc(-n2ccc(C(F)(F)F)cc2=O)ncc1C(=O)Nc1nnc(C#CC2CC2)s1` [Compound 445], below 0.25 nM; as for `COc1cnc(C(F)F)cc1-c1cc(CC(=O)N2CC(F)(F)C2)ncc1C(=O)Nc1nnc(C#CC2CC2)s1` [Compound 446], below 0.25 nM.
Molecule `COc1cnc(C(F)F)cc1-c1cc(CC(=O)N2CC(F)(F)C2)ncc1C(=O)Nc1ncc(C#CC2CC2)s1` [Compound 447] registered an IC50 below 0.25 nM.
As to `Cc1ccn(-c2cc(-c3cc(C(F)F)ncc3Cl)c(C(=O)Nc3nnc(C#CC4CC4)s3)cn2)c(=O)c1` [Compound 448], the IC50 is below 0.25 nM.
As for `COc1cnc(C(F)F)cc1-c1cc(-n2cccc(F)c2=O)ncc1C(=O)Nc1nnc(C#CC2CC2)s1` [Compound 449], the figure is below 0.25 nM; as for `COc1cnc(C(F)F)cc1-c1cc(-c2cc(C)n(C)n2)ncc1C(=O)Nc1nnc(C#CC2CC2)s1` [Compound 450], 0.48 nM.
Under `COc1cnc(C(F)F)cc1-c1cc(-n2cnc(C)c(C)c2=O)ncc1C(=O)Nc1nnc(C#CC2CC2)s1` [Compound 451] stands below 0.25 nM; under `COc1cnc(C(F)F)cc1-c1cc(-n2ncc(OC)c(Cl)c2=O)ncc1C(=O)Nc1nnc(C#CC2CC2)s1` [Compound 452], below 0.25 nM.
The molecule `COc1cnc(C(F)F)cc1-c1cc(-n2nccc(C)c2=O)ncc1C(=O)Nc1nnc(C#CC2CC2)s1` [Compound 453] returned an IC50 below 0.25 nM.
As for `COc1cnc(C(F)F)cc1-c1cc(-n2cc(N)c(C)cc2=O)ncc1C(=O)Nc1nnc(C#CC2CC2)s1` [Compound 454], the figure is 1.1 nM; as for `COc1cnc(C(F)F)cc1-c1cc(-n2cccc(Cl)c2=O)ncc1C(=O)Nc1nnc(C#CC2CC2)s1` [Compound 455], below 0.25 nM.
Under `COc1cnc(C(F)F)cc1-c1cc(-n2cccc(C(F)(F)F)c2=O)ncc1C(=O)Nc1nnc(C#CC2CC2)s1` [Compound 456] stands below 0.25 nM; under `COc1cnc(C(F)F)cc1-c1cc(-c2ccn(C)n2)c(F)cc1C(=O)Nc1nnc(C#CC2CC2)s1` [Compound 457], 0.37 nM.
As for `COc1cnc(C(F)F)cc1-c1cc(-n2ccnc(C)c2=O)ncc1C(=O)Nc1nnc(C#CC2CC2)s1` [Compound 458], 0.1 nM corresponded to half-maximal inhibition (IC50).
As for `COc1cnc(C(F)F)cc1-c1cc(-n2ccc(Cl)cc2=O)ncc1C(=O)Nc1nnc(C#CC2CC2)s1` [Compound 459], the figure is below 0.25 nM.
On to `COc1cnc(C(F)F)cc1-c1cc(-n2c(F)cccc2=O)ncc1C(=O)Nc1nnc(C#CC2CC2)s1` [Compound 461], for which the IC50 was below 0.25 nM.
Turning to `COc1cnc(C(F)F)cc1-c1cc(-n2nc3c(cc2=O)CCC3)ncc1C(=O)Nc1nnc(C#CC2CC2)s1` [Compound 462], the IC50 is below 0.25 nM.
Take `O=C(Nc1nnc(C#CC2CC2)s1)c1cnc(-n2ncccc2=O)cc1-c1cc(C(F)F)ncc1Cl` [Compound 463]: the IC50 is below 0.25 nM.
As to `Cc1nnc(-n2cc(-c3cc(C(F)(F)F)ccc3Cl)c(C(=O)Nc3ncc(C#CC4CC4)s3)cc2=O)o1` [Compound 464], the IC50 was below 0.25 nM.
As for `COc1cnc(C(F)F)cc1-c1cc(N2CCN(C)C3(CC3)C2=O)ncc1C(=O)Nc1ncc(C#CC2CC2)s1` [Compound 465], the figure is 0.27 nM; as for `COc1cnc(C(F)F)cc1-c1cc(-n2ccc(C)c(F)c2=O)ncc1C(=O)Nc1nnc(C#CC2CC2)s1` [Compound 466], below 0.25 nM; as for `COc1cnc(C(F)F)cc1-c1cc(-n2ccc(C)c(C)c2=O)ncc1C(=O)Nc1nnc(C#CC2CC2)s1` [Compound 467], below 0.25 nM.
`COc1cnc(C(F)F)cc1-c1cc(N2CC(=O)N(C)C3(CC3)C2=O)ncc1C(=O)Nc1nnc(C#CC2CC2)s1` [Compound 469] had an IC50 below 0.25 nM.

The IC50 is the concentration at which inhibition is half-maximal.
